Results taken from publication PMC8379219 (Nature Communications, 2021).
Where “and” joins values, the source holds several entries; their conditions need not be identical. Identical values can stand only once.

Tests used:
SERT WT [1] = target: T1, SERT WT (Homo sapiens, UniProt P31645); test: [3H]IMI dissociation rate assay (allosteric potency), COS-7 membranes;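 on all read-outs here: radioligand pre-bound 30 min at room temperature to equilibrium, then dissociation followed over 5–70 min, ended by filtration through GF/B filters, at least three independent experiments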; type: binding; parameters: expressed in transfected cells; host or cells: COS-7; settings: for VLZ Allosteric Potency SERT WT, [3H]IMI dissociation (Fig. 2C): ctrl = 1, replicates
SERT WT [2] = target: T1, SERT WT; test: [3H]5-HT saturation uptake with increasing VLZ concentrations, COS-7 cells;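 on all read-outs here: transfected cells assayed 2 days post-transfection, 3 min uptake period, accumulated radioactivity counted in cell lysates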; type: cell-based; parameters: expressed in transfected cells; host or cells: COS-7; [3H]5-HT uptake (Fig. 2A [3H]5-HT Vmax):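 percent of the 5-HT Vmax measured without VLZ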; settings: for [3H]5-HT uptake (Fig. 2A [3H]5-HT Vmax): replicates

T1 sequence (P31645 whole entry): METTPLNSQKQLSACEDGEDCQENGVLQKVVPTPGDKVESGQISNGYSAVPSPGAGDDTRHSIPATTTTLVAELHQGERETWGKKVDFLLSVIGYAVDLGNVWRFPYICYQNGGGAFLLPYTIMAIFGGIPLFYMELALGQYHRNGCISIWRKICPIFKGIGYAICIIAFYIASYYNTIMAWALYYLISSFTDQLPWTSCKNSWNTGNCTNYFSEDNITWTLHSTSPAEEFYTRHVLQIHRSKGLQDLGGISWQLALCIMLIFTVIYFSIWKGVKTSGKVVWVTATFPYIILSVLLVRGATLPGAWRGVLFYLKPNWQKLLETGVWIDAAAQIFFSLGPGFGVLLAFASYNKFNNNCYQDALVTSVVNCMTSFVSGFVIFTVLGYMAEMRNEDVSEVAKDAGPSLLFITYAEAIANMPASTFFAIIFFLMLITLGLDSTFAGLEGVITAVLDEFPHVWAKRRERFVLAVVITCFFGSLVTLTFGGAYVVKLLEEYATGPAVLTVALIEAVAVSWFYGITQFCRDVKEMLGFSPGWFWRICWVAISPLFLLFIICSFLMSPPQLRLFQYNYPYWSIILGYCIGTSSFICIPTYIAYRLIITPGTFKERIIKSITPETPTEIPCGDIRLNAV

[3H]IMI dissociation (Fig. 2B) (SERT WT [1]; 1.6 nM, time 30 min): 88.3693
[3H]IMI dissociation (Fig. 2B) (SERT WT [1]; 1.6 nM, time 50 min): 82.8483
[3H]IMI dissociation (Fig. 2B) (SERT WT [1]; 1.6 nM, time 70 min): 74.8875
[3H]IMI dissociation (Fig. 2B) (SERT WT [1]; 5.0 nM, time 5 min): 97.5709
[3H]IMI dissociation (Fig. 2B) (SERT WT [1]; 5.0 nM, time 10 min): 97.4425
[3H]IMI dissociation (Fig. 2B) (SERT WT [1]; 5.0 nM, time 20 min): 93.3593
[3H]IMI dissociation (Fig. 2B) (SERT WT [1]; 5.0 nM, time 30 min): 90.4506
[3H]IMI dissociation (Fig. 2B) (SERT WT [1]; 5.0 nM, time 50 min): 84.3631
[3H]IMI dissociation (Fig. 2B) (SERT WT [1]; 5.0 nM, time 70 min): 76.3943
[3H]IMI dissociation (Fig. 2B) (SERT WT [1]; 14 nM, time 5 min): 98.3663
[3H]IMI dissociation (Fig. 2B) (SERT WT [1]; 14 nM, time 10 min): 97.4617
[3H]IMI dissociation (Fig. 2B) (SERT WT [1]; 14 nM, time 15 min): 95.8874
[3H]IMI dissociation (Fig. 2B) (SERT WT [1]; 14 nM, time 20 min): 96.0081
[3H]IMI dissociation (Fig. 2B) (SERT WT [1]; 14 nM, time 30 min): 92.2894
[3H]IMI dissociation (Fig. 2B) (SERT WT [1]; 14 nM, time 50 min): 89.4282
[3H]IMI dissociation (Fig. 2B) (SERT WT [1]; 14 nM, time 70 min): 81.9514
[3H]IMI dissociation (Fig. 2B) (SERT WT [1]; 41 nM, time 5 min): 97.9849
[3H]IMI dissociation (Fig. 2B) (SERT WT [1]; 41 nM, time 10 min): 98.4954
[3H]IMI dissociation (Fig. 2B) (SERT WT [1]; 41 nM, time 15 min): 97.2116
[3H]IMI dissociation (Fig. 2B) (SERT WT [1]; 41 nM, time 20 min): 97.5521
[3H]IMI dissociation (Fig. 2B) (SERT WT [1]; 41 nM, time 30 min): 96.6684
[3H]IMI dissociation (Fig. 2B) (SERT WT [1]; 41 nM, time 50 min): 94.4925
[3H]IMI dissociation (Fig. 2B) (SERT WT [1]; 41 nM, time 70 min): 87.7012
VLZ Allosteric Potency SERT WT, [3H]IMI dissociation (Fig. 2C) (SERT WT [1]; Log[VLZ] (M) -4): 0
[3H]5-HT uptake (Fig. 2A [3H]5-HT Vmax) (SERT WT [2]; 1.0 nM VLZ, 5-HT 1000 nM): 49.0825 and 65.883 and 64.0163
[3H]5-HT uptake (Fig. 2A [3H]5-HT Vmax) (SERT WT [2]; 1.0 nM VLZ, 5-HT 2000 nM): 61.0408 and 86.9627 and 62.7549
[3H]5-HT uptake (Fig. 2A [3H]5-HT Vmax) (SERT WT [2]; 1.0 nM VLZ, 5-HT 3000 nM): 66.441 and 97.8152 and 78.0502
[3H]5-HT uptake (Fig. 2A [3H]5-HT Vmax) (SERT WT [2]; 6.0 nM VLZ, 5-HT 1000 nM): 12.5099 and 7.037 and 21.7589
[3H]5-HT uptake (Fig. 2A [3H]5-HT Vmax) (SERT WT [2]; 6.0 nM VLZ, 5-HT 2000 nM): 13.9352 and 18.4437
[3H]5-HT uptake (Fig. 2A [3H]5-HT Vmax) (SERT WT [2]; 6.0 nM VLZ, 5-HT 3000 nM): 16.6938 and 13.3777
[3H]5-HT uptake (Fig. 2A [3H]5-HT Vmax) (SERT WT [2]; 7.5 nM VLZ, 5-HT 2000 nM): 20.8007 and 29.8638 and 2.631 and 9.704
[3H]5-HT uptake (Fig. 2A [3H]5-HT Vmax) (SERT WT [2]; 7.5 nM VLZ, 5-HT 3000 nM): 31.591 and 10.2272 and 13.2803
[3H]5-HT uptake (Fig. 2A [3H]5-HT Vmax) (SERT WT [2]; 10 nM VLZ, 5-HT 1000 nM): 11.1656 and 2.348 and 1.555 and 4.995
[3H]5-HT uptake (Fig. 2A [3H]5-HT Vmax) (SERT WT [2]; 10 nM VLZ, 5-HT 3000 nM): 19.1566 and 3.978 and 3.024
Mode of inhibition of [3H]5-HT transport (SERT WT [2]; VLZ 0–15 nM): non-competitive
5-HT VMAX (in % of no VLZ) (SERT WT [2]; VLZ 1 nM): 93 ± 13%
5-HT VMAX (in % of no VLZ) (SERT WT [2]; VLZ 3.0 nM): 66 ± 10%
5-HT VMAX (in % of no VLZ) (SERT WT [2]; VLZ 3.8 nM): 72 ± 17%
5-HT VMAX (in % of no VLZ) (SERT WT [2]; VLZ 6.0 nM): 21 ± 6%
5-HT VMAX (in % of no VLZ) (SERT WT [2]; VLZ 7.5 nM): 18 ± 8%
5-HT VMAX (in % of no VLZ) (SERT WT [2]; VLZ 10 nM): 11 ± 5%
5-HT VMAX (in % of no VLZ) (SERT WT [2]; VLZ 15 nM): 3.4 ± 1.2%
5-HT VMAX (in % of no VLZ) (SERT WT [2]; VLZ […]): 98 ± 10%
SMILES: N#Cc1ccc2[nH]cc(CCCCN3CCN(c4ccc5oc(C(N)=O)cc5c4)CC3)c2c1 [VLZ, Vilazodone]
VLZ Allosteric Potency SERT WT, [3H]IMI dissociation (Fig. 2C) (SERT WT [1]; Log[VLZ] (M) -5.9101): 0.1027 and 0.08972 and 0.1662 and 0.1172 and 0.01147
VLZ Allosteric Potency SERT WT, [3H]IMI dissociation (Fig. 2C) (SERT WT [1]; Log[VLZ] (M) -6.38561): 0.0801 and 0.09017 and 0.06116 and 0.2108 and 0.1226 and 0.07783 and 0.1748 and 0.1023
VLZ Allosteric Potency SERT WT, [3H]IMI dissociation (Fig. 2C) (SERT WT [1]; Log[VLZ] (M) -6.86273): 0.1665 and 0.2014 and 0.09755 and 0.4073 and 0.1925 and 0.0796 and 0.2088 and 0.1328
VLZ Allosteric Potency SERT WT, [3H]IMI dissociation (Fig. 2C) (SERT WT [1]; Log[VLZ] (M) -7.33985): 0.3329 and 0.2727 and 0.2322 and 0.5054 and 0.3314 and 0.3281 and 0.2598 and 0.3035 and 0.2526
VLZ Allosteric Potency SERT WT, [3H]IMI dissociation (Fig. 2C) (SERT WT [1]; Log[VLZ] (M) -7.81697): 0.6247 and 0.4843 and 0.4623 and 0.5542 and 0.4673 and 0.4013 and 0.468 and 0.4244
VLZ Allosteric Potency SERT WT, [3H]IMI dissociation (Fig. 2C) (SERT WT [1]; Log[VLZ] (M) -8.29409): 0.894 and 0.6671 and 0.6226 and 0.8075 and 0.7294 and 0.5156 and 0.7279 and 0.5418
VLZ Allosteric Potency SERT WT, [3H]IMI dissociation (Fig. 2C) (SERT WT [1]; Log[VLZ] (M) -8.77121): 0.9289 and 0.7744 and 0.7519 and 0.85 and 0.8487 and 0.773 and 0.7182 and 0.7591
[3H]5-HT uptake (Fig. 2A [3H]5-HT Vmax) (SERT WT [2]; 3.0 nM VLZ, 5-HT 1000 nM): 33.7847 and 41.1475 and 28.2118 and 48.6535
[3H]5-HT uptake (Fig. 2A [3H]5-HT Vmax) (SERT WT [2]; 3.0 nM VLZ, 5-HT 2000 nM): 43.7743 and 51.4964 and 36.278 and 58.2653
[3H]5-HT uptake (Fig. 2A [3H]5-HT Vmax) (SERT WT [2]; 3.0 nM VLZ, 5-HT 3000 nM): 47.6029 and 61.8621 and 42.6502 and 66.7813
[3H]5-HT uptake (Fig. 2A [3H]5-HT Vmax) (SERT WT [2]; 3.8 nM VLZ, 5-HT 1000 nM): 22.8758 and 41.0675 and 31.8704 and 40.9164 and 22.5758 and 39.1234
[3H]5-HT uptake (Fig. 2A [3H]5-HT Vmax) (SERT WT [2]; 3.8 nM VLZ, 5-HT 2000 nM): 38.6315 and 55.6912 and 34.4535 and 55.6242 and 30.4203 and 47.6358
[3H]5-HT uptake (Fig. 2A [3H]5-HT Vmax) (SERT WT [2]; 3.8 nM VLZ, 5-HT 3000 nM): 63.6765 and 45.9269 and 61.6646 and 33.1434 and 58.1985
[3H]5-HT uptake (Fig. 2A [3H]5-HT Vmax) (SERT WT [2]; 7.5 nM VLZ, 5-HT 1000 nM): 14.9918 and 20.7791 and 1.755 and 5.881 and 9.304
[3H]5-HT uptake (Fig. 2A [3H]5-HT Vmax) (SERT WT [2]; 10 nM VLZ, 5-HT 2000 nM): 17.8898 and 3.041 and 8.84 and 7.029 and 9.965
[3H]5-HT uptake (Fig. 2A [3H]5-HT Vmax) (SERT WT [2]; 15 nM VLZ, 5-HT 1000 nM): 1.871 and 1.697 and 1.083 and 0.6379 and 0.8401 and 1.916
[3H]5-HT uptake (Fig. 2A [3H]5-HT Vmax) (SERT WT [2]; 15 nM VLZ, 5-HT 2000 nM): 3.689 and 3.04 and 2.083 and 1.212 and 1.597 and 2.763
